Source: patent US20150044346A1, “USE OF OXAZOLINES AS AROMA/FLAVOUR PRECURSORS” (NESTEC S.A., priority 2012, published 2015)
Several values for one entry are separate records, joined by “and”; a condition that tells them apart may be missing. Identical values can stand only once. One block for each molecule: values may come before it.

Columns and labels:
Format in all cases: physicochemical
[1] = Headspace GC-MS release of Strecker aldehydes from spiked chocolate on addition of saliva; settings: headspace injection; for Concentration in “release sample” (after addition of saliva): spiked chocolate 2 g + saliva 2 mL, 5 min at 37° C.; for Concentration in blank sample (prior addition of saliva): spiked chocolate 2 g melted at 37° C.
Description: To further confirm the PTR-MS data, all experiments are repeated using a headspace GC-MS system. Commercial chocolate (50% of cocoa content) was frozen in liquid nitrogen and ground to a powder using a mixer. An aliquote (25 g) was melted at 35° C. using a water bath and [^2H6]-methylpropanal, [^2H2]-3-methylbutanal as well as [^13C2]-phenylacetaldehyde were added. After stirring for 5 min, the chocolate was cooled to room temperature and used for all further headspace experiments (“spiked chocolate”). The newly spiked chocolate (2 g) was weighed into a headspace vial (10 mL; sealed with a gastight septum) containing a stirring bar. The chocolate was melted at 37° C. for 5 min under stirring. Then, the first injection (1 mL) was done at 37° C. used as blank sample. Afterwards, the sample was cooled to approx. 16° C. After 30 min, saliva (2 mL) was added through the septum via a syringe, and the sample was again warmed to 37° C. under stirring. After a further 5 min, the second injection (1 mL) was done again at 37° C. (“release sample”). All experiments were done in triplicates. 2-Methylbutanal was quantified using [^2H2]-3-methylbutanal.

[2] = PTR-MS release of Strecker aldehydes from spiked chocolate on addition of water or saliva; settings: spiked chocolate 5 g, water (5 mL, pH 4) or saliva (5 mL), 37° C.; FIG. 2, FIG. 3
Description: Commercial chocolate (50% of cocoa content) was frozen in liquid nitrogen and ground to a powder using a mixer. An aliquote (50 g) was melted at 35° C. using a water bath and [^2H2]-3-methylbutanal as well as [^13C2]-phenylacetaldehyde were added. After stirring for 5 min, the chocolate was cooled to room temperature and used for all further PTR-MS experiments (“spiked chocolate”).
5.0 g of spiked chocolate was weighed into an iodine flask (200 mL; sealed with a gastight septum) containing a stirring bar. The chocolate was melted at 37° C. for 5 min under stirring. Afterwards, the flask was connected to a PTR-MS instrument via a peek capillary (experiments were done at 37° C.). After defined time (details are given in the respective figures via number of cycles), water (5 mL, pH 4) or saliva (5 mL), respectively, was singly added through the septum via a syringe.
As blank, methylpropanal (2.5 μg), 3-methylbutanal (6.25 μg), phenylacetaldehyde (25 μg), [^2H2]-3-methylbutanal (4.3 μg), and [^13C2]-phenylacetaldehyde (20 μg) were added to sunflower oil (10 g) in an iodine flask (200 mL). Following parameters are used for PTR-MS measurement: inlet temperature 120° C., chamber temperature 80° C., inlet flow 70 mL/min. The mass traces and the dwell time used to monitor Strecker aldehydes are shown below: […]

[3] = Release of Strecker aldehyde from 3-oxazoline precursor stirred in water at 37° C. (stable isotope dilution, HS-GC-MS / GC-MS); settings: for isomer I (unreacted) (mol %) / isomer II (formed) (mol %): starting from isomer I; for isomer I (formed) (mol %) / isomer II (unreacted) (mol %): starting from isomer II
[4] = Impact of pH value on release of Strecker aldehyde from 3-oxazoline precursor in buffer solution at 37° C.
Description: (§1) 2-(2-Methylpropyl)-5-methyl-3-oxazoline (dissolved in pentane/diethyl ether; 2 mL) was added to ethanol (0.5 mL). The pentane/diethyl ether was carefully evaporated, and finally made up to 5 mL with ethanol. […] A control experiment was performed with 2-(2-methylpropyl)-5-methyl-3-oxazoline and the respective standard without adding the respective buffer solution. For headspace measurements, the samples were directly subjected to HS-GC-MS. For liquid measurements, the samples were cooled in an ice bath and extracted with diethyl ether (3×15 mL; liquid-liquid extraction). The organic phases were combined, dried over anhydrous sodium sulphate, and the solvent was distilled off (20° C., 500 mbar) to about 4 mL. An aliquot (2 μL) was used for the stable isotope dilution assays ((GC-) GC-MS).
as §1, with “2-Methylphenyl-5-methyl-3-oxazoline” for “2-(2-Methylpropyl)-5-methyl-3-oxazoline”, “2-methylphenyl-5-methyl-3-oxazoline” for “2-(2-methylpropyl)-5-methyl-3-oxazoline”

[5] = 5 min, stirred in water at 37° C.
[6] = 15 min, stirred in water at 37° C.
[7] = 30 min, stirred in water at 37° C.
[8] = Control experiment without addition of water
[9] = Control experiment without addition of water, in relation to amount of precursor used
[10] = Control without addition of water

Concentration in “release sample” (after addition of saliva) [1]: 4456 μg/kg of chocolate
Concentration in blank sample (prior addition of saliva) [1]: 502 μg/kg of chocolate
release from spiked chocolate after addition of water or saliva (PTR-MS) [2]: clearly increased
SMILES: CC(C)CC=O [3-methylbutanal]

2-methylbutanal (mol %) generated from precursor [3, 5]: 14.6 mol %
2-methylbutanal (mol %) generated from precursor [3, 6]: 33.3 mol %
2-methylbutanal (mol %) generated from precursor [3, 7]: 55.6 mol %
2-methylbutanal (mol %) generated from precursor [3, 8]: 1.1 mol %
SMILES: CCC(C)C1N=CC(C)O1 (single isomer, unassigned) [2-(1-methylpropyl)-5-methyl-3-oxazoline]

methylpropanal (mol %) generated from precursor [3, 5]: 46.0 mol %
methylpropanal (mol %) generated from precursor [3, 6]: 53.5 mol %
methylpropanal (mol %) generated from precursor [3, 7]: 56.1 mol %
methylpropanal (mol %) generated from precursor [3, 8]: 0.1 mol %
SMILES: CC1C=NC(C(C)C)O1 (single isomer, unassigned) [2-(1-methylethyl)-5-methyl-3-oxazoline]

SMILES: O=CCc1ccccc1 [phenylacetaldehyde]
Concentration in “release sample” (after addition of saliva) [1]: < LoD (due to headspace
Concentration in blank sample (prior addition of saliva) [1]: < LoD (due to headspace
release from spiked chocolate after addition of water or saliva (PTR-MS) [2]: clearly increased

SMILES: CC(C)C=O [methylpropanal]
Concentration in “release sample” (after addition of saliva) [1]: 1103 μg/kg of chocolate
Concentration in blank sample (prior addition of saliva) [1]: 25.4 μg/kg of chocolate
release from spiked chocolate after addition of water or saliva (PTR-MS) [2]: clearly increased

SMILES: CC(C)CC1N=CC(C)O1 (single isomer, unassigned) [2-(2-methylpropyl)-5-methyl-3-oxazoline isomer I, 2-(2-methylpropyl)-5-methyl-3-oxazoline]
3-methylbutanal (mol %) generated from precursor [3, 5]: 72.7 mol %
isomer I (unreacted) (mol %) ([3]; 5 min, water 37° C.): 16.2 mol %
isomer II (formed) (mol %) ([3]; 5 min, water 37° C.): 5.1 mol %
3-methylbutanal released / precursor converted to Strecker aldehyde ([3]; 5 min after addition of water at 37° C.): 73%
3-methylbutanal (mol %) generated from precursor [3, 6]: 82.4 mol %
isomer I (unreacted) (mol %) ([3]; 15 min, water 37° C.): 8.4 mol %
isomer II (formed) (mol %) ([3]; 15 min, water 37° C.): 10.2 mol %
3-methylbutanal (mol %) generated from precursor [3, 7]: 91.1 mol %
isomer I (unreacted) (mol %) ([3]; 30 min, water 37° C.): 2.9 mol %
isomer II (formed) (mol %) ([3]; 30 min, water 37° C.): 4.3 mol %
3-methylbutanal (mol %) generated from precursor [3, 9]: 0.3 mol %
isomer I (unreacted) (mol %) [3, 10]: 98.1 mol %
isomer II (formed) (mol %) [3, 10]: 1.9 mol %
corresponding isomer II formed from purified isomer I ([3]; after 5 min, water 37° C.): 5%
3-methylbutanal released ([3]; after 15 min, water 37° C.): > 80%
3-methylbutanal released ([3]; after 30 min, water 37° C.): > 90% and 91%

SMILES: CC(C)CC1N=CC(C)O1 (single isomer, unassigned) [2-(2-methylpropyl)-5-methyl-3-oxazoline isomer II, 2-(2-methylpropyl)-5-methyl-3-oxazoline]
3-methylbutanal (mol %) generated from precursor [3, 5]: 72.5 mol %
isomer I (formed) (mol %) ([3]; 5 min, water 37° C.): 3.0 mol %
isomer II (unreacted) (mol %) ([3]; 5 min, water 37° C.): 25.7 mol %
3-methylbutanal (mol %) generated from precursor [3, 6]: 81.4 mol %
isomer I (formed) (mol %) ([3]; 15 min, water 37° C.): 3.7 mol %
isomer II (unreacted) (mol %) ([3]; 15 min, water 37° C.): 16.7 mol %
3-methylbutanal (mol %) generated from precursor [3, 7]: 92.2 mol %
isomer I (formed) (mol %) ([3]; 30 min, water 37° C.): 2.2 mol %
isomer II (unreacted) (mol %) ([3]; 30 min, water 37° C.): 7.2 mol %
3-methylbutanal (mol %) generated from precursor [3, 9]: 0.4 mol %
isomer I (formed) (mol %) [3, 10]: 1.7 mol %
isomer II (unreacted) (mol %) [3, 10]: 98.3 mol %

phenylacetaldehyde (mol %) generated from precursor ([4]; pH 5, Control without addition of buffer solution): 0.4 mol %
phenylacetaldehyde (mol %) generated from precursor ([4]; pH 5 buffer, 5 min, 37° C.): 41.2 mol %
phenylacetaldehyde (mol %) generated from precursor ([4]; pH 5 buffer, 15 min, 37° C.): 72.1 mol %
phenylacetaldehyde (mol %) generated from precursor ([4]; pH 5 buffer, 30 min, 37° C.): 87.7 mol %
phenylacetaldehyde (mol %) generated from precursor ([4]; pH 7, Control without addition of buffer solution): 0.3 mol %
phenylacetaldehyde (mol %) generated from precursor ([4]; pH 7 buffer, 5 min, 37° C.): 7.7 mol %
phenylacetaldehyde (mol %) generated from precursor ([4]; pH 7 buffer, 15 min, 37° C.): 18.0 mol %
phenylacetaldehyde (mol %) generated from precursor ([4]; pH 7 buffer, 30 min, 37° C.): 30.2 mol %
phenylacetaldehyde (mol %) generated from precursor ([4]; pH 9, Control without addition of buffer solution): 0.3 mol %
phenylacetaldehyde (mol %) generated from precursor ([4]; pH 9 buffer, 5 min, 37° C.): 4.9 mol %
phenylacetaldehyde (mol %) generated from precursor ([4]; pH 9 buffer, 15 min, 37° C.): 7.1 mol %
phenylacetaldehyde (mol %) generated from precursor ([4]; pH 9 buffer, 30 min, 37° C.): 14.3 mol %
SMILES: Cc1ccccc1C1N=CC(C)O1 (centres unmarked) [2-methylphenyl-5-methyl-3-oxazoline]

phenylacetaldehyde (mol %) generated from precursor [3, 5]: 17.2 mol %
phenylacetaldehyde (mol %) generated from precursor ([3]; 5 min, stirred in water at 37° C., listed as 2-methylphenyl-5-methyl-2-oxazoline isomer II): 17.2 mol %
isomer I (formed) (mol %) ([3]; 5 min, water 37° C.): 9.0 mol %
isomer II (unreacted) (mol %) ([3]; 5 min, water 37° C.): 28.6 mol %
phenylacetaldehyde (mol %) generated from precursor [3, 6]: 32.2 mol %
phenylacetaldehyde (mol %) generated from precursor ([3]; 15 min, stirred in water at 37° C., listed as 2-methylphenyl-5-methyl-2-oxazoline isomer II): 32.2 mol %
isomer I (formed) (mol %) ([3]; 15 min, water 37° C.): 5.4 mol %
isomer II (unreacted) (mol %) ([3]; 15 min, water 37° C.): 26.0 mol %
phenylacetaldehyde (mol %) generated from precursor [3, 7]: 46.5 mol %
phenylacetaldehyde (mol %) generated from precursor ([3]; 30 min, stirred in water at 37° C., listed as 2-methylphenyl-5-methyl-2-oxazoline isomer II): 46.5 mol %
isomer I (formed) (mol %) ([3]; 30 min, water 37° C.): 2.7 mol %
isomer II (unreacted) (mol %) ([3]; 30 min, water 37° C.): 20.2 mol %
phenylacetaldehyde (mol %) generated from precursor [3, 8]: 0.3 mol %
phenylacetaldehyde (mol %) generated from precursor ([3]; Control experiment without addition of water, listed as 2-methylphenyl-5-methyl-2-oxazoline isomer II): 0.3 mol %
isomer I (formed) (mol %) [3, 10]: 1.8 mol %
isomer II (unreacted) (mol %) [3, 10]: 98.2 mol %
SMILES: Cc1ccccc1C1N=CC(C)O1 (single isomer, unassigned; isomer ii) [2-methylphenyl-5-methyl-3-oxazoline isomer II, 2-methylphenyl-5-methyl-3-oxazoline]

phenylacetaldehyde (mol %) generated from precursor [3, 5]: 16.6 mol %
isomer I (unreacted) (mol %) ([3]; 5 min, water 37° C.): 31.8 mol %
isomer II (formed) (mol %) ([3]; 5 min, water 37° C.): 7.1 mol %
phenylacetaldehyde (mol %) generated from precursor [3, 6]: 23.1 mol %
isomer I (unreacted) (mol %) ([3]; 15 min, water 37° C.): 31.1 mol %
isomer II (formed) (mol %) ([3]; 15 min, water 37° C.): 6.3 mol %
phenylacetaldehyde (mol %) generated from precursor [3, 7]: 42.5 mol %
isomer I (unreacted) (mol %) ([3]; 30 min, water 37° C.): 22.3 mol %
isomer II (formed) (mol %) ([3]; 30 min, water 37° C.): 5.8 mol %
phenylacetaldehyde (mol %) generated from precursor [3, 8]: 0.2 mol %
isomer I (unreacted) (mol %) [3, 10]: 98.0 mol %
isomer II (formed) (mol %) [3, 10]: 2.0 mol %
corresponding isomer II formed from purified isomer I ([3]; after 5 min, water 37° C.): 7%
phenylacetaldehyde liberated ([3]; after 5 min, water 37° C.): 17%
phenylacetaldehyde liberated ([3]; after 15 min, water 37° C.): > 20%
phenylacetaldehyde liberated ([3]; after 30 min, water 37° C.): > 40% and 43%
SMILES: Cc1ccccc1C1N=CC(C)O1 (single isomer, unassigned; isomer i) [2-methylphenyl-5-methyl-3-oxazoline isomer I, 2-methylphenyl-5-methyl-3-oxazoline]

Concentration in “release sample” (after addition of saliva) [1]: 3009 μg/kg of chocolate
Concentration in blank sample (prior addition of saliva) [1]: 354 μg/kg of chocolate
release from spiked chocolate after addition of water or saliva (PTR-MS) [2]: clearly increased
SMILES: CCC(C)C=O (centres unmarked) [2-methylbutanal]
